According to ChEMBL document CHEMBL5257145, “1,2,4-Triazine Derivatives as NLRP3 Inhibitors for Treating Diseases” (ACS Med Chem Lett, 2023):

Biological target: NACHT, LRR and PYD domains-containing protein 3 (Homo sapiens, UniProt Q96P20)
Experiment: Inhibition of NLRP3 inflammasome activation in PMA-differentiated human THP-1 cells assessed as reduction in IL-1beta secretion preincubated for 20 hrs followed by nigericin addition and measured after 3 hrs by HTRF assay
Assay type: cell-based

Sequence of NACHT, LRR and PYD domains-containing protein 3 (Q96P20 whole entry, the tested form may be a part): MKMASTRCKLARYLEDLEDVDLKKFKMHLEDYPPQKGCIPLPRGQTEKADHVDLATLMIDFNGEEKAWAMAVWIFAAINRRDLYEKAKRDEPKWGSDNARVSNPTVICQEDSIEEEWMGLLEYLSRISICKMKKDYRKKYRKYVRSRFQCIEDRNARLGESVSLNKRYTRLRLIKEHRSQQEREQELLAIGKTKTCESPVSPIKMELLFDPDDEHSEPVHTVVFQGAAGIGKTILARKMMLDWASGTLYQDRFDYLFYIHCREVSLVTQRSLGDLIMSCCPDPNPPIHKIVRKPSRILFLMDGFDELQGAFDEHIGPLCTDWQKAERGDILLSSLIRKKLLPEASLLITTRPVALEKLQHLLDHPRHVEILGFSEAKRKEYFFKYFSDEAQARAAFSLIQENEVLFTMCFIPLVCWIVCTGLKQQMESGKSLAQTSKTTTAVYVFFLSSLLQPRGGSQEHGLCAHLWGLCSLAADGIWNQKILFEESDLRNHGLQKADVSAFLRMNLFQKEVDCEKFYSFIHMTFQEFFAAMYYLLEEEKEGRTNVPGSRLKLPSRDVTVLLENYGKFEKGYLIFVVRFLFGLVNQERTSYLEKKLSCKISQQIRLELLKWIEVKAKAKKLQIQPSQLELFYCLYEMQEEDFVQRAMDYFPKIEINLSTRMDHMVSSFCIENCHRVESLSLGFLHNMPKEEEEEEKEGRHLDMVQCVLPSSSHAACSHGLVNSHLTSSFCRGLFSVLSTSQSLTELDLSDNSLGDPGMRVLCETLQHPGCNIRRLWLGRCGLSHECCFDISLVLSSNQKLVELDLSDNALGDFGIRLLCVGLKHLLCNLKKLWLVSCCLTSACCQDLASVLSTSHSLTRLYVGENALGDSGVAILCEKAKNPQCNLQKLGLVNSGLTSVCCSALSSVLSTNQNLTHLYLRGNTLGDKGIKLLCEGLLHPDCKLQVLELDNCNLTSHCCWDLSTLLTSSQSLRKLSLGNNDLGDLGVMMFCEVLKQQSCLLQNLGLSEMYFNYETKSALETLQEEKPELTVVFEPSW

IC50 [nM]	SMILES
< 1	COc1ccc(-c2nnc(N[C@@H]3CCCN(C)C3)nc2C)c(O)c1
< 1	Cc1nc(N[C@@H]2CCCN(C)C2)nnc1-c1ccc(C2CC2)cc1O
< 1	Cc1nc(N[C@@H]2CCCN(C)C2)nnc1-c1ccc(Cl)cc1O

Further lines, the compound ahead of its results:

SMILES	IC50 [nM]
Cc1nc(N[C@@H]2CCCN(C)C2)nnc1-c1ccc(C(F)(F)F)cc1O	< 1
COc1cc(O)c(-c2nnc(N[C@@H]3CCCN(C)C3)nc2C)c(F)c1	< 1
Cc1cc(O)c(-c2nnc(N[C@@H]3CCCN(C)C3)nc2C)c(F)c1	< 1
